Assay results reported in ChEMBL document CHEMBL1122381, “Synthesis and antitumor activity of 7- and 9-(6'-deoxy-alpha-L-talofuranosyl) hypoxanthine and 9-(6'-deoxy-alpha-L-talofuranosyl)-6-thiopurine” (1983).
Active and inactive are the calls of the source. The calls are words filed in the database; no cut-off is given here.

Assays:
L1210 [1] = test: Antitumor activity against L1210 tumor cells tested in vivo; NA means inactive.; assay type: functional, organism-based; conditions: Mus musculus
L1210 [2] = test: Antitumor activity against L1210 tumor cell growth in vitro and the value is expressed as % inhibition at a dose of 1 ug/mL; assay type: functional; conditions: Mus musculus
L1210 [3] = test: Antitumor activity against L1210 tumor cells in vivo and the value is expressed as T / C ([…]) at a dose of 10000 ug/kg; assay type: functional, Mus musculus
[4] = target: T1, Purine nucleoside phosphorylase (Bos taurus) (UniProt P55859); test: Antitumor activity by inhibiting purine nucleoside phosphorylase (PNPase) enzyme; NA means inactive.
T1 sequence (whole entry): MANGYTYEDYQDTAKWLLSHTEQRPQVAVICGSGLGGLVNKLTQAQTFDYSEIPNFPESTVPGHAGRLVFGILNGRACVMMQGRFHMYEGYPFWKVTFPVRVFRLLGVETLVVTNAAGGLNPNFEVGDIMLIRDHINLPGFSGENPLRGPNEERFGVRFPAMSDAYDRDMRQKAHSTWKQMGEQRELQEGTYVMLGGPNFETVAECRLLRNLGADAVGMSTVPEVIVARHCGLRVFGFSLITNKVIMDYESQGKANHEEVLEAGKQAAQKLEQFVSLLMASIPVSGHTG

Row | inhibition [4] | SMILES | T/C (L1210 [1]) | inhibition at 1 µg/mL (L1210 [2]) [%] | T/C (L1210 [3])
1 |  | CC(O)[C@H]1O[C@@H](n2cnc3ncnc(O)c32)[C@H](O)[C@@H]1O (stereo not given in full) | inactive |  | 
2 | inactive | CC(O)[C@H]1O[C@@H](n2cnc3c(S)ncnc32)[C@H](O)[C@@H]1O (stereo not given in full) |  | 50 | 146
3 | inactive | CC(O)[C@H]1O[C@@H](n2cnc3c(O)ncnc32)[C@H](O)[C@@H]1O (stereo not given in full) |  |  | 
